Measured values reported in publication PMC9045377, “CpxA Phosphatase Inhibitor Activates CpxRA and Is a Potential Treatment for Uropathogenic Escherichia coli in a Murine Model of Infection” (Microbiology Spectrum, 2022).
Where “and” joins values, the source holds several entries; their conditions need not be identical. Equal values may be shown once.

How the values were obtained:
CpxRA [1] = test system: CpxRA; design: method as in PMID 31104993; conditions: β-galactosidase reporter assay in E. coli; read-out: mean 50% effective concentration (EC50), CpxRA activation; cited from earlier work
CpxRA [2] = assay: E. coli CpxR β-galactosidase reporter assay for CpxRA activation (reporter strain PAD282); format: cell-based, Escherichia coli
Method: E. coli strain CFT073 and its derivative CFT073ΔcpxA::cat were described previously and maintained on Luria broth (LB) plates at 37°C ([30]). The E. coli PcpxP′-lacZ reporter strain, PAD282, was the gift of Thomas Silhavy (Princeton University, Princeton, NJ, USA) and was maintained on TB plates at 37°C ([31]). HepG2 hepatocellular carcinoma cells were the gift of Andy Yu (Indiana University, Indianapolis, IN) and were grown in RPMI […] medium (Gibco) containing 10% fetal calf serum (HyClone) and 1 mM sodium pyruvate (Sigma) at 37°C with 5% CO2 as described ([31]).
Compounds 1 and 6 were purchased from ChemDiv and Aurum Pharmatech, respectively ([31], [32]). Compound 26 was synthesized and purified by the Duerfeldt laboratory as described ([32]). All compounds were dissolved in DMSO prior to use in this assay. The EC50 values for each compound were determined by measuring the β-galactosidase activity of the reporter strain PAD282 as previously reported ([31]). Briefly, PAD282 was cultured overnight in TB medium with 0.4% glucose and diluted into a 384-well plate, which contained the compounds in concentrations ranging from 0 to 160 μM, and incubated for 5 h at 37°C with no shaking. The All-in-One β-galactosidase reagent (Pierce) was added and the OD420, OD550, and OD600 of the wells were measured by a SpectraMax 384 plate reader. EC50 values were determined from 3 separate experiments done in triplicate using GraphPad Prism software using a nonlinear fit model. In some experiments, EC50 values were determined in the presence and absence of 10% human AB serum (Sigma).

[3] = Toxicity / clinical signs in mice; format: in vivo, female CBA/J mice
Method: We tested our initial hit, compound 1 ([31]) (Fig. 1), for toxicity in a murine model using criteria described in Materials and Methods. […] To test compound 1 for efficacy, female CBA/J mice were transurethrally inoculated with ∼1 × 10^8 CFU of UPEC strain CFT073; 12 h later, mice were treated with 100 mg/kg compound 1 (n = 10) or the vehicle control (n = 5) s.c. twice a day for 3 days and then sacrificed 4 h after the last dose. No effect was seen on the recovery of E. coli CFT073 in the urine, bladder, or kidneys (see Fig. S1 in the supplemental material). As compound 1 lacked efficacy, we aimed to improve the scaffold to enhance potency and eliminate the nitro group liability ([32]).
We developed a high-performance liquid chromatography-tandem mass spectrometry (HPLC-MS/MS) assay to measure compound 6 with a lower limit of quantification of 1 ng/mL. Single-dose PK parameters of compound 6 were determined in female CBA/J mice (n = 15) given 100 mg/kg s.c. dissolved in the vehicle. Blood was obtained from groups of 3 mice 1, 2, 4, 8, and 24 h postinjection.
Animal experiments were conducted according to the guidelines of the Indiana University School of Medicine Institutional Animal Care and Use Committee by the IU Simon Comprehensive Cancer Center In Vivo Therapeutics Core, a component of the Indiana Clinical Translational Science Institute. For the pilot toxicity study with compound 1, 4- to 6-week-old CBA/J female mice were obtained from Jackson Laboratory (Bar Harbor, ME) and were treated with compound 1 or the vehicle control twice a day for 3 days as described in the results. […] Toxicity was determined by the following criteria: deteriorating health-hunched posture, lack of grooming, failure to thrive, failure to eat and drink for >48 h, rapid loss of 15 to 20% body weight, inactivity with hunched posture, loss of righting reflex and inability to maintain upright posture, loss of general body condition with spine becoming visible, and dehiscence of wounds and/or evidence of infection at injection sites not responsive to veterinary treatment.

[4] = infected mice, 100 mg/kg s.c. at 12, 36, 60 h

SMILES	EC50 (CpxRA [1]) [µM]	effect of 10% human AB serum on activity in the reporter assay (CpxRA [2]; 10% human AB serum present vs absent)	fold lower EC50 (more potent) than compound 1 (CpxRA [2]; reporter assay)	concentration for peak activation of CpxR (CpxRA [2]; reporter assay, Fig. S2) [µM]	clinical signs during efficacy trial [3, 4]	clinical signs of toxicity at 24 h ([3]; single dose 100 mg/kg s.c.)	tremors ([3]; single dose 100 mg/kg s.c., n = 15, one mouse from 30 min (severe at 2 h), six mice after 1 h)	clinical signs, all treated mice ([3]; single dose 100 mg/kg s.c., from 10 min after injection to the 8-h time point)	fold lower EC50 (more potent) than compound 6 (CpxRA [2]; reporter assay) [fold]	signs of toxicity during efficacy trial [3, 4]
NC1CCCc2c1[nH]c1ccc(F)cc21 (centres unmarked) [compound 6]	7.7	not affected	3.2 fold and 3 fold	10	None of the compound 6-treated animals exhibited decreased activity, tremors, or squinting	No mice showed clinical signs of toxicity	slight tremors	slightly decreased activity and squinting	–	–
N[C@@H]1CCCc2c1[nH]c1cc(F)c(F)cc21 [compound 26]	1.1	–	–	–	–	–	–	–	~7	None of the compound 26-treated animals exhibited signs of toxicity
